# Experimental data taken from US8895733B2 (Novartis AG, priority 2010, dated 2014).
# Molecular target: T1, Nav 1.7 (Homo sapiens, UniProt Q15858)
# T1 construct: expressed in transfected cells
# Experiment: Whole-cell voltage clamp electrophysiology, automated patch clamp (marker c in Table of Examples)
# Assay type: cell-based
# Settings: marker c: Automated patch clamp data; read-out: Nav 1.7 activity
# Source text: a.IonWork Quattro data, b=Manual patch clamp data, c=Automated patch clamp data M=Method
# Whole-Cell Voltage Clamp Electrophysiology Assay
# Patch-clamp electrophysiology is considered the gold standard technique for investigation of ion channel function and pharmacology. Using this method, sodium channel currents can be measured in cells, which stably (or transiently) express the sodium channel subtype of interest. Application of compounds during such experiments provides a functional measure of the activity and potency of compounds affecting the ion channel of interest.
# Electrophysiological studies can be performed using automated or manual patch-clamp techniques. Automated patch-clamp instruments suitable for this work include the Ion Works HT (MDS), Ion Works Quattro (MDS), PatchLiner (Nanion technologies), Port-A-Patch (Nanion technologies), QPatch (Sophion) or any other suitable platform.
# For recording in automated patch-clamp instruments, cells expressing the voltage-gated sodium channel subtype of interest are dispensed in appropriate chips (plates with more than one recording chambers each containing one or more apertures to generate whole-cell patches), as provided by the manufacturer. Typically, the whole-cell perforated patch configuration is used for probing the pharmacology of compounds in automated patch-clamp electrophysiology on sodium channels. Extracellular and intracellular buffers for such experiments are composed according to the literature, or according to the instructions provided by the manufacturer of the instruments. Test solutions, which contain the compounds to be tested, are applied to the cells expressing the sodium channel of interest by a pipetting system, typically integrated into the robots.
# A suitable voltage stimulus protocol is used to activate voltage-gated sodium channel proteins of interest. A typical stimulus protocol may consist of sweeps of sequential voltage pulses starting from a holding potential (i.e. −65 mV), to a more positive and depolarising test pulse potential (i.e. −10 mV) and finally to a more negative and hyperpolarising potential (i.e. −100 mV). According to the biophysics of the voltage-gated ion channel of interest and interest in channel configuration the voltages and durations of the pulses as well as the overall frequency of sweeps applied might vary. Accordingly, a stimulus protocol was designed to assess compounds due to their potential to block NaV1.7 channels primarily in inactivated state. Selectivity over other voltage-gated sodium channel members was assessed by protocols that reflect the native function of the channels (i.e. heart rate or firing of neurons).
# T1 sequence (Q15858 whole entry): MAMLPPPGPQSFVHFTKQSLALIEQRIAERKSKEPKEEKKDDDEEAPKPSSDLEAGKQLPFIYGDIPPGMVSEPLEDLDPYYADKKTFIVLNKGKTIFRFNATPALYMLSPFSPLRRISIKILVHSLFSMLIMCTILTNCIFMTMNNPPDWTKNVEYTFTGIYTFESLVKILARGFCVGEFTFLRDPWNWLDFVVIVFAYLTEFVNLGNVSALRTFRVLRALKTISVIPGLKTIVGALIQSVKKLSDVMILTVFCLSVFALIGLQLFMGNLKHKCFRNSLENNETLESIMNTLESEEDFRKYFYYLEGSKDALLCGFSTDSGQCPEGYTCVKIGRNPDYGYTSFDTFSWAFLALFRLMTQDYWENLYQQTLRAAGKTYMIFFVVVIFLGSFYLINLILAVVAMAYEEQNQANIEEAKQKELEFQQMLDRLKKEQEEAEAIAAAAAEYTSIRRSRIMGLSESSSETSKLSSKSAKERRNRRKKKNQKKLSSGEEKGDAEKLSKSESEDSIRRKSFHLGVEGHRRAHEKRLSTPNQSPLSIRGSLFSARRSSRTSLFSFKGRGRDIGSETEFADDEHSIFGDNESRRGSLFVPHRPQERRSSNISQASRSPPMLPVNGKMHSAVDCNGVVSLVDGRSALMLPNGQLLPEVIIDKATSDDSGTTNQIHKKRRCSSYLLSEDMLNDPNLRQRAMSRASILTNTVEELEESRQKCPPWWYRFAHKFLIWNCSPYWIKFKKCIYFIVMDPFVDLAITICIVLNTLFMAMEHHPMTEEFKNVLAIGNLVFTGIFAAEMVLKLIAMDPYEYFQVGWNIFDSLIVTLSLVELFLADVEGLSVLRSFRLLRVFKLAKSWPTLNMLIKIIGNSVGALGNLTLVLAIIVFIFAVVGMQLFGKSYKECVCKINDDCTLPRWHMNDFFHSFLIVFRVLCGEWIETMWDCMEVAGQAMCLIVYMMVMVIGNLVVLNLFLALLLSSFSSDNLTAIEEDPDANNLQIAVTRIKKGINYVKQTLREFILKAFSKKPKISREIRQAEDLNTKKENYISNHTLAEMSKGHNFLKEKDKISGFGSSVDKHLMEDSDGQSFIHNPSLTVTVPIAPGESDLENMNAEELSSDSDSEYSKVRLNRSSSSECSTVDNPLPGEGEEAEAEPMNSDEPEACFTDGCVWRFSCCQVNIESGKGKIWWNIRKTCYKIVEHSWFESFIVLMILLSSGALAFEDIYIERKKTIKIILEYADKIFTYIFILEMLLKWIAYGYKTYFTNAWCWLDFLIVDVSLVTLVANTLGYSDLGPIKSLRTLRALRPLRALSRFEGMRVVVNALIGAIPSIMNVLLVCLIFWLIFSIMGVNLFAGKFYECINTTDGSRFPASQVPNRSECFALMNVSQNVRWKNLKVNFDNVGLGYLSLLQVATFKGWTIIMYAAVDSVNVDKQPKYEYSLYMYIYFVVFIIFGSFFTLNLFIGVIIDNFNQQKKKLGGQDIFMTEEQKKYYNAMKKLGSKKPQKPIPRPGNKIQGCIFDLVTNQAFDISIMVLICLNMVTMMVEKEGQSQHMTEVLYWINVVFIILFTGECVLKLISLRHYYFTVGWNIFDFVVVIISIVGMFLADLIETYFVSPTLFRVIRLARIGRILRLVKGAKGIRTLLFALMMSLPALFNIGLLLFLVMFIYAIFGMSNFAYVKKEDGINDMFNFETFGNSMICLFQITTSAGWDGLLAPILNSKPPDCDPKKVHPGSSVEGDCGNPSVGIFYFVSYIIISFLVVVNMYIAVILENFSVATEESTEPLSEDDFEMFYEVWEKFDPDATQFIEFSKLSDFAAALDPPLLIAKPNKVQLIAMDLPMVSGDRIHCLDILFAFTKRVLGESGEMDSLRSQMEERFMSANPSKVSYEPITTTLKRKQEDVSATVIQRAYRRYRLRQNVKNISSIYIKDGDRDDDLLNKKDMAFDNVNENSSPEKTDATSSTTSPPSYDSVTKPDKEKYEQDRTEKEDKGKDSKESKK
row,IC50 [µM],SMILES
1,2.54,"Cc1ccc(-c2nc(-c3nc(N)nc(N(C)c4ccccc4)n3)no2)s1 [Example 129, N-Methyl-6-[5-(5-methyl-thiophen-2-yl)-[1,2,4]oxadiazol-3-yl]-N-phenyl-[1,3,5]triazine-2,4-diamine]"
2,5.11,"CN(c1ccccc1)c1nc(N)nc(-c2noc(N3CCCC3)n2)n1 [Example 131, N-Methyl-N-phenyl-6-(5-pyrrolidin-1-yl-[1,2,4]oxadiazol-3-yl)-[1,3,5]triazine-2,4-diamine]"
3,0.067,"CN(c1nc(N)nc(-c2noc(-c3ccc(OCC4CC4)nc3)n2)n1)c1ccccc1F [Example 134, 6-{5-[6-(cyclopropylmethoxy)pyridin-3-yl]-1,2,4-oxadiazol-3-yl}-2-N-(2-fluorophenyl)-2-N-methyl-1,3,5-triazine-2,4-diamine]"
4,0.065,"Nc1nc(Nc2cccc(F)c2)nc(-c2noc(-c3ccc(OCC4CC4)nc3)n2)n1 [Example 136, 6-{5-[6-(cyclopropylmethoxy)pyridin-3-yl]-1,2,4-oxadiazol-3-yl}-2-N-(3-fluorophenyl)-1,3,5-triazine-2,4-diamine]"
5,0.564,CN(c1ccccc1)c1nc(N)nc(-c2noc(C(=O)N3CC(Oc4ccc(F)cc4)C3)n2)n1 [Example 137]
6,0.106,"Nc1nc(Nc2ccccc2F)nc(-c2noc(-c3ccc(OCC4CC4)nc3)n2)n1 [Example 138, 6-{5-[6-(cyclopropylmethoxy)pyridin-3-yl]-1,2,4-oxadiazol-3-yl}-2-N-(2-fluorophenyl)-1,3,5-thazine-2,4-diamine]"
7,0.144,"Nc1nc(Nc2cccc(F)c2F)nc(-c2noc(-c3ccc(OCC4CC4)nc3)n2)n1 [Example 139, 6-{5-[6-(cyclopropylmethoxy)pyridin-3-yl]-1,2,4-oxadiazol-3-yl}-2-N-(2,3-difluorophenyl)-1,3,5-triazine-2,4-diamine]"
8,0.085,"CN(c1nc(N)nc(-c2noc(-c3ccc(OCC4CC4)nc3)n2)n1)c1cccc(F)c1F [Example 140, 6-{5-[6-(cyclopropylmethoxy)pyridin-3-yl]-1,2,4-oxadiazol-3-yl}-2-N-(2,3-difluorophenyl)-2-N-methyl-1,3,5-triazine-2,4-diamine]"
9,0.261,"CN(c1ccccc1)c1nc(N)nc(-c2noc(-c3ccc(OC4CCOC4)nc3)n2)n1 (centres unmarked) [Example 141, 2-N-methyl-6-{5-[6-(oxolan-3-yloxy)pyridin-3-yl]-1,2,4-oxadiazol-3-yl}-2-N-phenyl-1,3,5-triazine-2,4-diamine]"
10,5.82,"CN(c1ccccc1)c1nc(N)nc(-c2noc(-c3ccc(C(F)(F)F)nc3Cl)n2)n1 [Example 142, 6-{5-[2-chloro-6-(trifluoromethyl)pyridin-3-yl]-1,2,4-oxadiazol-3-yl}-2-N-methyl-2-N-phenyl-1,3,5-triazine-2,4-diamine]"
11,3.57,"COCCOCc1ccc(-c2nc(-c3nc(N)nc(N(C)c4ccccc4)n3)no2)cn1 [Example 143, 6-{5-[6-(2-Methoxy-ethoxymethyl)-pyridin-3-yl]-[1,2,4]oxadiazol-3-yl}-N-methyl-N-phenyl-[1,3,5]triazine-2,4-diamine]"
12,1.72,"CN(c1ccccc1)c1nc(N)nc(-c2noc(-c3ccc(COC4CCOC4)nc3)n2)n1 (centres unmarked) [Example 144, N-Methyl-N-phenyl-6-{5-[6-(tetrahydro-furan-3-yloxymethyl)-pyridin-3-yl]-[1,2,4]oxadiazol-3-yl}-[1,3,5]triazine-2,4-diamine]"
13,0.188,"CN(c1ccccc1)c1nc(N)nc(-c2noc(-c3ccc(OCC4CC4)nc3)n2)n1 [Example 146, 6-{5-[6-(cyclopropylmethoxy)pyridin-3-yl]-1,2,4-oxadiazol-3-yl}-2-N-methyl-2-N-phenyl-1,3,5-triazine-2,4-diamine]"
14,0.042,"CCN(c1ccccc1)c1nc(N)nc(-c2noc(-c3ccc(OCC(F)(F)F)nc3)n2)n1 [Example 147, 2-N-ethyl-2-N-phenyl-6-{5-[6-(2,2,2-trifluoroethoxy)pyridin-3-yl]-1,2,4-oxadiazol-3-yl}-1,3,5-triazine-2,4-diamine]"
